Results reported in ChEMBL document CHEMBL1221245, “A physical properties based approach for the exploration of a 4-hydroxybenzothiazolone series of beta2-adrenoceptor agonists as inhaled long-acting bronchodilators” (Bioorg Med Chem Lett, 2010).

test system: not listed separately; assay: Agonist activity at beta 1 adrenoceptor in electrically-stimulated guinea pig left atrium at 1 uM; type: functional, Cavia porcellus, Cardiac atrium

| SMILES | Activity [%] |
| --- | --- |
| C[C@@H](NC[C@H](O)c1ccc(O)c2[nH]c(=O)sc12)C1CCCCC1 | 69 |
| Cc1onc(-c2ccccc2)c1CNC[C@H](O)c1ccc(O)c2[nH]c(=O)sc12 | 19 |
| O=c1[nH]c2c(O)ccc([C@@H](O)CN[C@@H]3CCCC[C@H]3OCc3ccccc3)c2s1 | 13 |

target: Beta-1 adrenergic receptor (Homo sapiens, UniProt P08588)
Sequence (P08588 whole entry): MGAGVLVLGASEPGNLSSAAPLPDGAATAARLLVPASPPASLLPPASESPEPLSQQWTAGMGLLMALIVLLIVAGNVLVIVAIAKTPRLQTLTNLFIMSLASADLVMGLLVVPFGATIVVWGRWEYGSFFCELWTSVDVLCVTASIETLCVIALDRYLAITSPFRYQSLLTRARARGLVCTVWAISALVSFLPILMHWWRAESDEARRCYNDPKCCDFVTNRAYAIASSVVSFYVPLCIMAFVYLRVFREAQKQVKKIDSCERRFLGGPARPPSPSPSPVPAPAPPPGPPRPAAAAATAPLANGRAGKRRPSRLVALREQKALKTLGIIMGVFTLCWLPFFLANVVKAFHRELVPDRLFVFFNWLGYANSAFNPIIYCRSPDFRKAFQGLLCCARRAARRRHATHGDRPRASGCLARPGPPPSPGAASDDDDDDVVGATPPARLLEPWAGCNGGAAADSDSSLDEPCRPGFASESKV
Description: Displacement of [3H]CGP12177 from human beta-1 adrenoceptor

| SMILES | Ki [nM] |
| --- | --- |
| CCC(CC)CNC[C@H](O)c1ccc(O)c2[nH]c(=O)sc12 | 169 |
| C[C@@H](NC[C@H](O)c1ccc(O)c2[nH]c(=O)sc12)C1CCCCC1 | 1.5 |
| C[C@H](NC[C@H](O)c1ccc(O)c2[nH]c(=O)sc12)C1CCCCC1 | 39.3 |
| CC(C)(C)CC(C)(C)NC[C@H](O)c1ccc(O)c2[nH]c(=O)sc12 | 9.2 |
| O=c1[nH]c2c(O)ccc([C@@H](O)CNCC34CC5CC(CC(C5)C3)C4)c2s1 | 35.4 |
| O=c1[nH]c2c(O)ccc([C@@H](O)CNCCc3ccccc3)c2s1 | 3.8 |
| Cc1onc(-c2ccccc2)c1CNC[C@H](O)c1ccc(O)c2[nH]c(=O)sc12 | 902 |
| O=c1[nH]c2c(O)ccc([C@@H](O)CNCCCc3ccccc3)c2s1 | 2 |
| CC(C)(Cc1ccccc1)NC[C@H](O)c1ccc(O)c2[nH]c(=O)sc12 | 1.8 |
| O=c1[nH]c2c(O)ccc([C@@H](O)CN[C@@H]3CCCc4ccccc43)c2s1 | 112 |
| O=c1[nH]c2c(O)ccc([C@@H](O)CN[C@H]3CCCc4ccccc43)c2s1 | 58.2 |
| O=c1[nH]c2c(O)ccc([C@@H](O)CNCCCCc3ccccc3)c2s1 | 15 |
| C[C@@H](NC[C@H](O)c1ccc(O)c2[nH]c(=O)sc12)c1ccc2ccccc2c1 | 1.4 |
| C[C@H](NC[C@H](O)c1ccc(O)c2[nH]c(=O)sc12)c1ccc2ccccc2c1 | 33.7 |
| O=c1[nH]c2c(O)ccc([C@@H](O)CNC3CCCCCC3)c2s1 | 78.8 |
| O=c1[nH]c2c(O)ccc([C@@H](O)CN[C@@H]3CCCC[C@H]3OCc3ccccc3)c2s1 | 40.4 |
| O=c1[nH]c2c(O)ccc([C@@H](O)CN[C@H]3CCCC[C@@H]3OCc3ccccc3)c2s1 | 1060 |
| CC1(C)[C@@H]2CC[C@]1(C)[C@@H](NC[C@H](O)c1ccc(O)c3[nH]c(=O)sc13)C2 | 1510 |
| CC1(C)[C@@H]2CC[C@@]1(C)[C@@H](NC[C@H](O)c1ccc(O)c3[nH]c(=O)sc13)C2 | 450 |
| O=c1[nH]c2c(O)ccc([C@@H](O)CNC3CCCCC3C3CCCCC3)c2s1 (some centres not stated) | 662 |
| O=c1[nH]c2c(O)ccc([C@@H](O)CNC3CCN(CCN4CCCCCC4)CC3)c2s1 | 187 |
| O=c1[nH]c2c(O)ccc([C@@H](O)CNCCOc3ccccc3)c2s1 | 17.8 |
| CN(CCCNC[C@H](O)c1ccc(O)c2[nH]c(=O)sc12)c1ccccc1 | 8.4 |
| O=C(NC1CCCCC1)[C@H](Cc1ccccc1)NC[C@H](O)c1ccc(O)c2[nH]c(=O)sc12 | > 1000 |
| O=c1[nH]c2c(O)ccc([C@@H](O)CNCCSc3ccc(Cl)cc3)c2s1 | 1.7 |
| CCCCN(CCCC)CCNC[C@H](O)c1ccc(O)c2[nH]c(=O)sc12 | 31.3 |
| CNCC(O)c1ccc(O)c2nc(O)sc12 (configuration not stated) | 60.6 |

target: Beta-2 adrenergic receptor (Homo sapiens, UniProt P07550)
Sequence (P07550 whole entry): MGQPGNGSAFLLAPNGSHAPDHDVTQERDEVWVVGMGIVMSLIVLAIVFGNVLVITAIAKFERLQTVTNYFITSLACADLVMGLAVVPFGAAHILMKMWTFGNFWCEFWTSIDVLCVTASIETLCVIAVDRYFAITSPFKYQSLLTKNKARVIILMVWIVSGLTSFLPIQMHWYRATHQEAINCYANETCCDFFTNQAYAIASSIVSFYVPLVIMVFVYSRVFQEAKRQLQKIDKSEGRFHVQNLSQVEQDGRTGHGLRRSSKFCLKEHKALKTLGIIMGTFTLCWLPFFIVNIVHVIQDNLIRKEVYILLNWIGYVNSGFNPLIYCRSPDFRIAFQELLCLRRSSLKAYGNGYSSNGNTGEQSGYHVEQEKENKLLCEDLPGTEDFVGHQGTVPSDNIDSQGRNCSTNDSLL
Description: Displacement of [3H]CGP12177 from human beta2 adrenoceptor

| SMILES | Ki [nM] |
| --- | --- |
| CCC(CC)CNC[C@H](O)c1ccc(O)c2[nH]c(=O)sc12 | 24.7 |
| C[C@@H](NC[C@H](O)c1ccc(O)c2[nH]c(=O)sc12)C1CCCCC1 | 1 |
| C[C@H](NC[C@H](O)c1ccc(O)c2[nH]c(=O)sc12)C1CCCCC1 | 25.1 |
| CC(C)(C)CC(C)(C)NC[C@H](O)c1ccc(O)c2[nH]c(=O)sc12 | 1.9 |
| O=c1[nH]c2c(O)ccc([C@@H](O)CNCC34CC5CC(CC(C5)C3)C4)c2s1 | 26.5 |
| O=c1[nH]c2c(O)ccc([C@@H](O)CNCCc3ccccc3)c2s1 | 1.8 |
| Cc1onc(-c2ccccc2)c1CNC[C@H](O)c1ccc(O)c2[nH]c(=O)sc12 | 19.8 |
| O=c1[nH]c2c(O)ccc([C@@H](O)CNCCCc3ccccc3)c2s1 | 1.2 |
| CC(C)(Cc1ccccc1)NC[C@H](O)c1ccc(O)c2[nH]c(=O)sc12 | 0.4 |
| O=c1[nH]c2c(O)ccc([C@@H](O)CN[C@@H]3CCCc4ccccc43)c2s1 | 9.4 |
| O=c1[nH]c2c(O)ccc([C@@H](O)CN[C@H]3CCCc4ccccc43)c2s1 | 30.2 |
| O=c1[nH]c2c(O)ccc([C@@H](O)CNCCCCc3ccccc3)c2s1 | 1.8 |
| C[C@@H](NC[C@H](O)c1ccc(O)c2[nH]c(=O)sc12)c1ccc2ccccc2c1 | 2.7 |
| C[C@H](NC[C@H](O)c1ccc(O)c2[nH]c(=O)sc12)c1ccc2ccccc2c1 | 48.9 |
| O=c1[nH]c2c(O)ccc([C@@H](O)CNC3CCCCCC3)c2s1 | 11.8 |
| O=c1[nH]c2c(O)ccc([C@@H](O)CN[C@@H]3CCCC[C@H]3OCc3ccccc3)c2s1 | 7.2 |
| O=c1[nH]c2c(O)ccc([C@@H](O)CN[C@H]3CCCC[C@@H]3OCc3ccccc3)c2s1 | 362 |
| CC1(C)[C@@H]2CC[C@]1(C)[C@@H](NC[C@H](O)c1ccc(O)c3[nH]c(=O)sc13)C2 | 40.4 |
| CC1(C)[C@@H]2CC[C@@]1(C)[C@@H](NC[C@H](O)c1ccc(O)c3[nH]c(=O)sc13)C2 | 3.8 |
| O=c1[nH]c2c(O)ccc([C@@H](O)CNC3CCCCC3C3CCCCC3)c2s1 (some centres not stated) | 151 |
| O=c1[nH]c2c(O)ccc([C@@H](O)CNC3CCN(CCN4CCCCCC4)CC3)c2s1 | 6.3 |
| O=c1[nH]c2c(O)ccc([C@@H](O)CNCCOc3ccccc3)c2s1 | 4.4 |
| CN(CCCNC[C@H](O)c1ccc(O)c2[nH]c(=O)sc12)c1ccccc1 | 0.3 |
| O=C(NC1CCCCC1)[C@H](Cc1ccccc1)NC[C@H](O)c1ccc(O)c2[nH]c(=O)sc12 | > 1000 |
| O=c1[nH]c2c(O)ccc([C@@H](O)CNCCSc3ccc(Cl)cc3)c2s1 | 3 |
| CCCCN(CCCC)CCNC[C@H](O)c1ccc(O)c2[nH]c(=O)sc12 | 18.3 |
| CNCC(O)c1ccc(O)c2nc(O)sc12 (configuration not stated) | 5 |
